Reference: patent publication US20090221024A1, “T CELL ASSAYS” (ANTITOPE LIMITED, priority 2006, published 2009)

How the values were obtained:
[1] = system: CD8^+ CD25^hi depleted PBMC; test: T cell proliferation assay (3HTdR) with whole CD8+ depleted vs CD8+ CD25hi depleted PBMC; assay type: cell-based, human; details: peptides previously scored borderline or negative; SI≧2 threshold
[2] = system: CD8^+ CD25^hi T cell depleted PBMC; test: Timecourse T cell proliferation assay, bulk cultures of CD8+ CD25hi T cell depleted PBMC; assay type: cell-based, human
Experimental: Wild type (WT) and T cell epitope depleted peptides ([…] and […], respectively) derived from human sTNFR1 sequence were synthesized (Pepscan Systems, Leystad, Netherlands) and tested using the method of example 1 in which CD8^+ CD25^hi T cell depleted PBMC were used to compare peptides derived from sTNFR-1 for the capacity to stimulate T cell responses from twenty healthy donors. Bulk cultures were established by adding 1 ml of 2-4×10^6/ml CD8^+ CD25^hi T cell depleted PBMC in AIM V culture medium to each well of a 24 well plate (Greiner Bio-One, Frickenhausen, Germany). Each peptide was tested separately against each donor by adding 1 ml 10 μM peptide to each bulk culture (final concentration of 5 μM for a 2 ml per bulk culture). For comparison, additional bulk cultures were established for untreated and positive (KLH) controls. Replicate samples (of T blasts) were removed from bulk cultures on days 6-9 and proliferation was assessed in 96 round bottom plates The data were used to assess the magnitude and kinetics of T cell responses to each peptide on days 6, 7, 8 and 9 post stimulation. In addition, the same twenty healthy donors used in the time course proliferation assay were tested for IL-2 production after 8 days culture with the TNFR1 peptides using the IL-2 Elispot assay. Elispot plates were pre-wet with 70% ethanol then coated with IL-2 capture antibody (R&D systems, Minneapolis, USA) overnight at 4° C. The plates were washed twice with PBS (Invitrogen, Paisley, UK) then blocked in 1% BSA/PBS for 2 hours at room temperature. The plates were washed in PBS prior to the addition of CD8^+ CD25^hi T cell depleted PBMC at 4×10^5 cells per well and test samples at a final concentration of 5 μM. After 7 days at 37° C./5% CO2, the plates were developed. After washing with first water then PBS, IL-2 detection antibody (R&D systems, Minneapolis, USA) in PBS/1% BSA was added for 2 hours at 37° C. After further washing with PBS, streptavadin-AP (R&D systems, Minneapolis, USA) was added for 1.5 hours, the plates washed again then BCIP/NBT chromagen (R&D systems, Minneapolis, USA) added for 30 minutes. The plates were washed with water, dried then spot counts analysed using the Immunospot Elispot analyzer, software version 3 (Cleveland, Ohio, USA).
Wild type (WT) and mutant T cell epitope depleted human sTNFR1 proteins were prepared as human Fc fusion proteins as described in WO/2004/113387 with the epitope-depleted protein having mutations I10Q, T20R, H23P, L56A, L108T, L110H and L149D. Proliferation and IL-2 Elispot assays were performed as in example 2 except that 1 ml of sTNFR1 proteins were added to a final concentration of 10 μg/ml.
Carbamazepine (Novartis Pharmaceuticals UK) and an N-acetyl iminostilbene (an analogue of carbamazepine, synthesized according to Ying et al Journal of Allergy and Clinical Immunology 2006; 118:233-241) were compared for the ability to stimulate T cell responses in a panel of healthy donors. Both compounds were tested at 25 μg/ml in separate bulk cultures for each donor according to the method of example 2. Briefly, bulk cultures were established using 2-4×10^6 CD8^+ CD25^hi T cell depleted PBMC in each well of a 24 well plate. Replicate samples (of T blasts) are removed from bulk cultures on days 5-8 and proliferation was assessed in 96 well plates. The data were used to assess the magnitude and kinetics of T cell responses to each compound.
As for example 2, a SI≧2 was used as a threshold for positive responses and data was further analyzed to determine the coefficient of variance (CV), standard deviation (SD) and significance (p<0.05) using parametric and non-parametric statistical analysis. Any given compound was considered to be immunogenic only if the response is statistically significant (p<0.05) with an SI≧2.

patients = details: known; cited from earlier work
[3] = system: CD8^+ CD25^hi T cell depleted PBMC; test: IL-2 Elispot assay with CD8+ CD25hi T cell depleted PBMC; assay type: cell-based, human; details: 5 μM peptide, twenty healthy donors, SI threshold of 2, p<0.05; donors 3, 8 and 11
Experimental: Wild type (WT) and T cell epitope depleted peptides ([…] and […], respectively) derived from human sTNFR1 sequence were synthesized (Pepscan Systems, Leystad, Netherlands) and tested using the method of example 1 in which CD8^+ CD25^hi T cell depleted PBMC were used to compare peptides derived from sTNFR-1 for the capacity to stimulate T cell responses from twenty healthy donors. Bulk cultures were established by adding 1 ml of 2-4×10^6/ml CD8^+ CD25^hi T cell depleted PBMC in AIM V culture medium to each well of a 24 well plate (Greiner Bio-One, Frickenhausen, Germany). Each peptide was tested separately against each donor by adding 1 ml 10 μM peptide to each bulk culture (final concentration of 5 μM for a 2 ml per bulk culture). For comparison, additional bulk cultures were established for untreated and positive (KLH) controls. Replicate samples (of T blasts) were removed from bulk cultures on days 6-9 and proliferation was assessed in 96 round bottom plates The data were used to assess the magnitude and kinetics of T cell responses to each peptide on days 6, 7, 8 and 9 post stimulation. […] The plates were washed with water, dried then spot counts analysed using the Immunospot Elispot analyzer, software version 3 (Cleveland, Ohio, USA). […]

[4] = system: autologous CD8^+ CD25^hi depleted CD4^+ T cells; test: Proliferation assay, antigen-pulsed monocyte derived dendritic cells plus autologous CD8+ CD25hi depleted CD4+ T cells; assay type: cell-based, human; details: 44 μg/ml, DC pulsed 6 hours, 7 days, SI ≧2, p<0.05, FIG. 4
Experimental: (§1) Monocytes were isolated from PBMC by adherence to tissue culture plastic (>90% CD14^+) and were cultured in 24 well plates in AIM V medium with 5% heat inactivated human AB serum (Autogen Bioclear, Caine, Wiltshire, UK) (growth medium) at an approximate density of 1×10^6 per well (24 well plate). Monocytes were incubated in growth medium containing human IL-4 (Peprotech, Rocky Hill, N.J., USA) and GM-CSF (Peprotech, Rocky Hill, N.J., USA) for 3 days. On day 3, 44 μg/ml of Betaferon (Schering AG, Berlin, Germany) were added in 0.5 ml test buffer plus 3% heat inactivated human AB serum and 25 mM (final concentration) HEPES pH 8. Control wells containing 50 μg/ml KLH or no antigen (untreated cells) were incubated in 1 ml PBS+0.01% Tween 20 plus 3% heat inactivated human AB serum (standard buffer). DC were incubated with antigen for 6 hours after which DCs were washed 6 times to remove exogenous IFN beta. […]
(§2) On day 4, autologous CD8^+ CD25^hi depleted CD4^+ T cells were isolated by negative selection from PBMC (Dynal Human CD4^+ Negative Isolation Kit, Wirral, UK) and were then added to DCs at 1×10^5 per well in both proliferation and Elispot plates. Elispot plates were incubated for 6 days before developing (as in example 2) and proliferation plates were incubated for 7 days before proliferation was measured by incorporation of 3HTdR (a 6 hour pulse at 1 μCi/well). […]

[5] = system: autologous CD8^+ CD25^hi depleted CD4^+ T cells; test: IL-2 Elispot assay, antigen-pulsed monocyte derived dendritic cells plus autologous CD8+ CD25hi depleted CD4+ T cells; assay type: cell-based, human; details: 44 μg/ml, DC pulsed 6 hours, 6 days, SI ≧2, p<0.05, FIG. 4
Experimental: as §1, §2

[6] = 5 μM peptide, donors 3, 8 and 11

## GDKFVSWYQQGSGQS [compound 2]
[1]
  detection of T cell epitopes after CD25^hi T cell depletion: allowed detection of T cell epitopes

## PGQTATITCSGHALG [peptide 1]
[1]
  detection of T cell epitopes after CD25^hi T cell depletion: allowed detection of T cell epitopes

## NC(=O)N1c2ccccc2C=Cc2ccccc21 [carbamazepine, Carbamazepine]
[2]; 25 μg/ml
  additional responses detected on days 6 and 7: one
[2]; 25 μg/ml, days 5-8
  day on which the majority of T cell responses are induced: 5 days
patients
  delayed allergic responses in patients: potent inducer of delayed allergic responses

## CC(=O)N1c2ccccc2C=Cc2ccccc21 [N-acetyl iminostilbene]
[2]; 25 μg/ml, days 5-8, panel of healthy donors, SI≧2, p<0.05
  donors stimulated, compared: fewer donors than carbamazepine

## HLRHCLSCSKCRKEM [WT peptide]
[3]
  donors giving responses, IL-2 Elispot assay: three
[2]; [6]
  peak proliferation responses, time: 7 days after peptide addition
  score as a T cell epitope if proliferation measured at timepoints 8 or 9 days after peptide addition: negative
[2]; 5 μM peptide, twenty healthy donors, days 6-9, SI threshold of 2, p<0.05, donors 3, 8 and 11
  donors giving responses, proliferation assay: three

B1: Betaferon: Betaferon (Schering AG), human interferon beta, an immunomodulatory protein (protein, UniProt P01574 22-187, looked up, variant C17S)
Interferon beta: MSYNLLGFLQRSSNFQSQKLLWQLNGRLEYCLKDRMNFDIPEEIKQLQQFQKEDAALTIYEMLQNIFAIFRQDSSSTGWNETIVENLLANVYHQINHLKTVLEEKLEKEDFTRGKLMSSLHLKRYYGRILHYLKAKEYSHCAWTIVRVEILRNFYFINRLTGYLRN
modifications: no N-terminal Met
notes: Betaferon (Schering AG), human interferon beta, an immunomodulatory protein
[4]
  donors with significant T cell responses, proliferation assay: 4 out of 29
[5]
  donors with significant T cell responses, IL-2 Elispot assay: 4 out of 29

B2: mutant T cell epitope depleted protein: T cell epitope depleted human sTNFR1 Fc fusion protein with mutations I10Q, T20R, H23P, L56A, L108T, L110H and L149D (protein, UniProt P19438 30-211, looked up, variant I10Q T20R H23P L56A L108T L110H L149D)
extracellular domain: LVPHLGDREKRDSVCPQGKYQHPQNNSICCRKCPKGTYLYNDCPGPGQDTDCRECESGSFTASENHARHCLSCSKCRKEMGQVEISSCTVDRDTVCGCRKNQYRHYWSENLFQCFNCSTCHNGTVHLSCQEKQNTVCTCHAGFFLRENECVSCSNCKKSDECTKLCLPQIENVKGTEDSGTT
modifications: extracellular domain human Fc fusion
[2]; whole protein 10 μg/ml, timecourse, FIG. 3
  donors with significant T cell responses, proliferation assay: not
